Reference: patent publication US8952024B2, “Herbicidal pyrimidone derivatives” (E I du Pont de Nemours and Company, priority 2009, dated 2015)

Assays:
Format in all cases: in vivo
[1] = test system: large crabgrass (Digitaria sanguinalis); assay: Test A pre-/postemergence plant response
In short: (§1)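 Both pre- and postemergence treatments are applied simultaneously, using chemicals formulated in a non-phytotoxic solvent mixture with surfactant. Postemergence plants are 2–10 cm high with one to two leaves. After approximately ten days in a greenhouse, injury is scored visually from 0 (none) to 100 (complete control) relative to untreated plants.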

[2] = test system: morningglory (Ipomoea spp.); assay: Test A pre-/postemergence plant response
In short: as §1

[3] = test system: velvetleaf (Abutilon theophrasti); assay: Test A pre-/postemergence plant response
In short: as §1

[4] = test system: wheat (Triticum aestivum); assay: Test A pre-/postemergence plant response
In short: as §1

[5] = test system: cocklebur (Xanthium strumarium); assay: Test B pre-/postemergence plant response; conditions: Preemergence; for Plant response rating, Cocklebur: scale 0 to 100, 0 no effect, 100 complete control
In short: (§2)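 Pre-em in loam/sand; post-em at 1–4 leaf (2–18 cm) in peat mix. Solvent + surfactant formulation. Greenhouse 13–15 d; visual % control vs untreated, 0–100.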

[6] = test system: downy bromegrass (Bromus tectorum); assay: Test B pre-/postemergence plant response
In short: as §2

[7] = test system: giant foxtail (Setaria faberii); assay: Test B pre-/postemergence plant response
In short: as §2

[8] = test system: goosegrass (Eleusine indica); assay: Test B pre-/postemergence plant response
In short: as §2

[9] = test system: green foxtail (Setaria viridis); assay: Test B pre-/postemergence plant response
In short: as §2

kochia (Kochia scoparia) = assay: Test B pre-/postemergence plant response
In short: as §2

[10] = test system: morningglory (Ipomoea coccinea); assay: Test B pre-/postemergence plant response
In short: as §2

[11] = test system: pigweed (Amaranthus retroflexus); assay: Test B pre-/postemergence plant response
In short: as §2

[12] = test system: wheat (Triticum aestivum); assay: Test B pre-/postemergence plant response
In short: as §2

[13] = Postemergence, 500 g ai/ha, visual injury, 0 to 100 scale (0 no effect, 100 complete control), approx. ten days
[14] = Preemergence, 125 g ai/ha, 0 to 100 scale where 0 is no effect and 100 is complete control, approximately ten days
[15] = Preemergence, 500 g ai/ha, 0 to 100 scale, 0 = no effect, 100 = complete control
[16] = Postemergence, 125 g ai/ha, visual injury, 0 to 100 scale (0 no effect, 100 complete control), approx. ten days
[17] = Postemergence, 31 g ai/ha, 0 to 100 scale (0 no effect, 100 complete control)
[18] = Postemergence, 125 g ai/ha, scale 0 (no effect) to 100 (complete control), 13 to 15 days
[19] = Postemergence, 250 g ai/ha, scale 0 to 100 (0 no effect, 100 complete control), 13 to 15 days
[20] = Postemergence, 62 g ai/ha, scale 0 to 100 (0 no effect, 100 complete control)
[21] = Preemergence, 31 g ai/ha, scale 0 to 100 (0 no effect, 100 complete control)
[22] = Preemergence, 62 g ai/ha, scale 0 to 100, 0 no effect, 100 complete control
[23] = Preemergence, 125 g ai/ha, scale 0 to 100, 0 no effect, 100 complete control
[24] = Preemergence, 250 g ai/ha, 0 to 100 scale

Q: How did the “Plant response rating, Crabgrass, Large” value ([1]; Postemergence, 125 g ai/ha, 0 to 100 scale where 0 is no effect and 100 is complete control) turn out when COCCCn1c(-c2cc(F)cc(F)c2)ncc(C(=O)C2=C(O)C3CCC(C3)C2=O)c1=O (centres unmarked) [Compound 244] was run?
A: 90

Q: What about the “Crabgrass, Large plant response rating” value [1, 13] of the same molecule?
A: 90

Q: What about the “Plant response rating, Crabgrass, Large” value [1, 14] of the same molecule?
A: 90

Q: What about the “Plant response rating, Crabgrass, Large” value [1, 15] of the same molecule?
A: 100

Q: What about the “Plant response rating, Morningglory” value [2, 16] of the same molecule?
A: 100

Q: And the “Morningglory plant response rating” value [2, 13]?
A: 100

Q: And the “Plant response rating, Morningglory” value [2, 14]?
A: 30

Q: What about the “Plant response rating, Morningglory” value [2, 15] of the same molecule?
A: 80

Q: And the “Plant response rating, Velvetleaf” value [3, 16]?
A: 100

Q: And the “Velvetleaf plant response rating” value [3, 13]?
A: 100

Q: And the “Plant response rating, Velvetleaf” value [3, 14]?
A: 50

Q: What about the “Plant response rating, Velvetleaf” value [3, 15] of the same molecule?
A: 100

Q: And the “Plant response rating, Wheat” value [4, 16]?
A: 40

Q: What about the “Wheat plant response rating” value [4, 13] of the same molecule?
A: 70

Q: What about the “Plant response rating, Wheat” value [4, 14] of the same molecule?
A: 0

Q: What about the “Plant response rating, Wheat” value [4, 15] of the same molecule?
A: 40

Q: What about the “Plant response rating, Cocklebur” value ([5]; 62 g ai/ha) of the same molecule?
A: 90

Q: What about the “Plant response rating, Cocklebur” value ([5]; 125 g ai/ha) of the same molecule?
A: 100

Q: And the “Cocklebur plant response rating” value ([5]; 250 g ai/ha, 0 to 100 scale)?
A: 100

Q: What about the “Plant response rating, Bromegrass, Downy” value [6, 17] of the same molecule?
A: 40

Q: What about the “Plant response rating, Bromegrass, Downy” value [6, 18] of the same molecule?
A: 75

Q: What about the “Plant response rating, Bromegrass, Downy” value [6, 19] of the same molecule?
A: 80

Q: And the “Plant response rating, Bromegrass, Downy” value [6, 20]?
A: 50

Q: And the “Plant response rating, Bromegrass, Downy” value [6, 21]?
A: 0

Q: And the “Plant response rating, Bromegrass, Downy” value [6, 22]?
A: 0

Q: And the “Plant response rating, Bromegrass, Downy” value [6, 23]?
A: 5

Q: What about the “Bromegrass, Downy plant response rating” value [6, 24] of the same molecule?
A: 30

Q: And the “Plant response rating, Foxtail, Giant” value [7, 17]?
A: 95

Q: What about the “Plant response rating, Foxtail, Giant” value [7, 18] of the same molecule?
A: 95

Q: And the “Plant response rating, Foxtail, Giant” value [7, 19]?
A: 100

Q: What about the “Plant response rating, Foxtail, Giant” value [7, 20] of the same molecule?
A: 95

Q: What about the “Plant response rating, Foxtail, Giant” value [7, 21] of the same molecule?
A: 60

Q: And the “Plant response rating, Foxtail, Giant” value [7, 22]?
A: 80

Q: What about the “Plant response rating, Foxtail, Giant” value [7, 23] of the same molecule?
A: 100

Q: And the “Foxtail, Giant plant response rating” value [7, 24]?
A: 100

Q: What about the “Plant response rating, Goosegrass” value [8, 17] of the same molecule?
A: 85

Q: And the “Plant response rating, Goosegrass” value [8, 18]?
A: 98

Q: And the “Plant response rating, Goosegrass” value [8, 19]?
A: 98

Q: And the “Plant response rating, Goosegrass” value [8, 20]?
A: 95

Q: And the “Plant response rating, Goosegrass” value [8, 21]?
A: 98

Q: And the “Plant response rating, Goosegrass” value [8, 22]?
A: 100

Q: What about the “Plant response rating, Goosegrass” value [8, 23] of the same molecule?
A: 100

Q: And the “Goosegrass plant response rating” value [8, 24]?
A: 100

Q: What about the “Plant response rating, Foxtail, Green” value [9, 17] of the same molecule?
A: 85

Q: And the “Plant response rating, Foxtail, Green” value [9, 18]?
A: 98

Q: And the “Plant response rating, Foxtail, Green” value [9, 19]?
A: 100

Q: And the “Plant response rating, Foxtail, Green” value [9, 20]?
A: 98

Q: What about the “Plant response rating, Foxtail, Green” value [9, 21] of the same molecule?
A: 0

Q: And the “Plant response rating, Foxtail, Green” value [9, 22]?
A: 45

Q: What about the “Plant response rating, Foxtail, Green” value [9, 23] of the same molecule?
A: 90

Q: And the “Foxtail, Green plant response rating” value [9, 24]?
A: 90

Q: And the “Plant response rating, Kochia” value (kochia (Kochia scoparia); [17])?
A: 85

Q: What about the “Plant response rating, Kochia” value (kochia (Kochia scoparia); [18]) of the same molecule?
A: 100

Q: And the “Plant response rating, Kochia” value (kochia (Kochia scoparia); [19])?
A: 100

Q: What about the “Plant response rating, Kochia” value (kochia (Kochia scoparia); [20]) of the same molecule?
A: 90

Q: What about the “Plant response rating, Kochia” value (kochia (Kochia scoparia); [21]) of the same molecule?
A: 85

Q: And the “Plant response rating, Kochia” value (kochia (Kochia scoparia); [22])?
A: 90

Q: What about the “Plant response rating, Kochia” value (kochia (Kochia scoparia); [23]) of the same molecule?
A: 95

Q: What about the “Kochia plant response rating” value (kochia (Kochia scoparia); [24]) of the same molecule?
A: 100

Q: What about the “Plant response rating, Morningglory” value [10, 17] of the same molecule?
A: 90

Q: What about the “Plant response rating, Morningglory” value [10, 18] of the same molecule?
A: 100

Q: And the “Plant response rating, Morningglory” value [10, 19]?
A: 100

Q: And the “Plant response rating, Morningglory” value [10, 20]?
A: 95

Q: What about the “Plant response rating, Morningglory” value [10, 21] of the same molecule?
A: 85

Q: What about the “Plant response rating, Morningglory” value [10, 22] of the same molecule?
A: 90

Q: What about the “Plant response rating, Morningglory” value [10, 23] of the same molecule?
A: 98

Q: What about the “Morningglory plant response rating” value [10, 24] of the same molecule?
A: 100

Q: What about the “Plant response rating, Pigweed” value [11, 17] of the same molecule?
A: 95

Q: What about the “Plant response rating, Pigweed” value [11, 18] of the same molecule?
A: 100

Q: And the “Plant response rating, Pigweed” value [11, 19]?
A: 100

Q: And the “Plant response rating, Pigweed” value [11, 20]?
A: 100

Q: And the “Plant response rating, Pigweed” value [11, 21]?
A: 100

Q: What about the “Plant response rating, Pigweed” value [11, 22] of the same molecule?
A: 100

Q: And the “Plant response rating, Pigweed” value [11, 23]?
A: 100

Q: What about the “Pigweed plant response rating” value [11, 24] of the same molecule?
A: 100

Q: What about the “Plant response rating, Wheat” value [12, 17] of the same molecule?
A: 60

Q: What about the “Plant response rating, Wheat” value [12, 18] of the same molecule?
A: 85

Q: What about the “Plant response rating, Wheat” value [12, 19] of the same molecule?
A: 95

Q: What about the “Plant response rating, Wheat” value [12, 20] of the same molecule?
A: 80

Q: And the “Plant response rating, Wheat” value [12, 21]?
A: 0

Q: What about the “Plant response rating, Wheat” value [12, 22] of the same molecule?
A: 0

Q: What about the “Plant response rating, Wheat” value [12, 23] of the same molecule?
A: 5

Q: What about the “Wheat plant response rating” value [12, 24] of the same molecule?
A: 45
